pIC50: −log10 of the molar value. Where a SMILES comes first, the peptide text is derived from it. Bridges are numbered along the chain shown (N, C = ends). [ ]: non-standard residue; d: D form. The star is where a group is joined. Trp(βS-Me) = C[C@@H](c1c[nH]c2ccccc12)[C@H](N)C(=O)O; Phe(4-CONH2) = NC(=O)c1ccc(C[C@H](N)C(=O)O)cc1; Bip = N[C@@H](Cc1ccc(-c2ccccc2)cc1)C(=O)O; Phe(3-Me) = Cc1cccc(C[C@H](N)C(=O)O)c1; hPhe = N[C@@H](CCc1ccccc1)C(=O)O; Cha = N[C@@H](CC1CCCCC1)C(=O)O; Cit = NC(=O)NCCC[C@H](N)C(=O)O; Carboxymethyl = O=C(O)C*; NMeA = CN[C@@H](C)C(=O)O; Aun = NCCCCCCCCCCC(=O)O; Dab = NCC[C@H](N)C(=O)O; AEEA = NCCOCCOCC(=O)O; Ac3c = NC1(C(=O)O)CC1

This note sets out measurements from patent US20260070945A1, “MACROCYCLIC IMMUNOMODULATORS” (Bristol-Myers Squibb Company, priority 2022, published 2026).

For the assay, the target named is T1, PD-1/PD-L1 interaction (PE-labeled human PD-L1-Ig binding to Jurkat cell line over-expressing human PD-1) (Homo sapiens, UniProt Q15116).
T1 construct: expressed in transfected cells; host or cells: Jurkat
T1 sequence (Q15116 25-288): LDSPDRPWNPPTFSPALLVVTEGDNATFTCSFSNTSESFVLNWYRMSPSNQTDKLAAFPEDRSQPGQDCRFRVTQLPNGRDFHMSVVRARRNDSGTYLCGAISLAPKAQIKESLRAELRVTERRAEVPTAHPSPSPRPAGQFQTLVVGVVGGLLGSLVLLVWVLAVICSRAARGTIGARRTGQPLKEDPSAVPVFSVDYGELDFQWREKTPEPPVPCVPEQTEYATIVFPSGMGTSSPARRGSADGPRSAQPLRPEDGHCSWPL
Kind of assay: Jurkat-PD-1 Cell Binding High-Content Screening Assay (CBA). The settings on record: Jurkat-hPD-1 cells, PE-labeled PD-L1-Ig 20 nM final; read-out: Jurkat HPD1 PDL1 IC50. In outline:
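Binding of 20 nM (final) PE-tagged PD-L1-Ig to compound-pretreated Jurkat-hPD-1 cells was measured by high-content imaging after 1 h. Pretreatment ran 2 h at 37 °C in DMEM with 10% fetal calf serum.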
For `CC(C)C[C@@H]1NC(=O)[C@H]([C@@H](C)c2c[nH]c3ccccc23)NC(=O)[C@H](CC(=O)O)NC(=O)[C@H](Cc2ccc(OCC(=O)O)cc2)NC(=O)[C@H](Cc2ccc(OCC(=O)O)cc2)NC(=O)CSC[C@@H](C(=O)NC2(C(=O)NCCOCCOCC(=O)NCCCCCCCCCCC(=O)O)CC2)NC(=O)[C@H](CCC(N)=O)NC(=O)[C@H](C(C)C)NC(=O)[C@H](CC2CCCCC2)NC(=O)[C@H](CCN)NC(=O)[C@@H](CC(C)C)NC(=O)[C@H](C)N(C)C(=O)[C@H](C(C)C)NC(=O)[C@H](Cc2ccc(-c3ccccc3)cc2)NC1=O` [Example 1272] ({CH2CO}-Y(Carboxymethyl)Y(Carboxymethyl)D[Trp(βS-Me)]L[Bip]V[NMeA][dL][Dab][Cha]VQC[Ac3c][AEEA][Aun]-OH; thioether N-14), the pIC50 (as a rule, the IC50 on a negative log10 scale, so that one unit is a factor of ten) was 7.39.
`CC(C)C[C@H]1NC(=O)[C@H](C)N(C)C(=O)[C@H](Cc2ccc(OCC(=O)O)cc2)NC(=O)[C@H](Cc2ccc(-c3ccccc3)cc2)NC(=O)[C@H](Cc2ccc(OCC(=O)O)cc2)NC(=O)[C@H]([C@@H](C)c2c[nH]c3ccccc23)NC(=O)[C@H](CC(=O)O)NC(=O)[C@H](Cc2ccc(OCC(=O)O)cc2)NC(=O)[C@H](CCCNC(=N)N)NC(=O)CSC[C@@H](C(=O)N[C@@H](CCN)C(=O)NCCCCCCCCCCC(=O)O)NC(=O)[C@H]([C@@H](C)O)NC(=O)[C@H](C(C)C)NC(=O)[C@H](CC2CCCCC2)NC(=O)[C@H](CCN)NC1=O` [Example 1273] ({CH2CO}-RY(Carboxymethyl)D[Trp(βS-Me)]Y(Carboxymethyl)[Bip]Y(Carboxymethyl)[NMeA][dL][Dab][Cha]VTC[Dab][Aun]-OH; thioether N-14): the pIC50 is 6.49.
Turning to `Cc1cccc(C[C@@H]2NC(=O)[C@H](CC(=O)O)NC(=O)[C@H](Cc3ccc(OCC(=O)O)cc3)NC(=O)[C@H](CCCNC(N)=O)NC(=O)CSC[C@@H](C(=O)N[C@@H](CCN)C(=O)NCCCCCCCCCCC(=O)O)NC(=O)[C@H](CO)NC(=O)[C@H](C(C)C)NC(=O)[C@H](CC3CCCCC3)NC(=O)[C@H](CCN)NC(=O)[C@@H](CC(C)C)NC(=O)[C@H](C)N(C)C(=O)[C@H](Cc3ccc(O)cc3)NC(=O)[C@H](Cc3ccc(-c4ccccc4)cc3)NC(=O)[C@H](Cc3ccc(OCC(=O)O)cc3)NC2=O)c1` [Example 1275] ({CH2CO}-[Cit]Y(Carboxymethyl)D[Phe(3-Me)]Y(Carboxymethyl)[Bip]Y[NMeA][dL][Dab][Cha]VSC[Dab][Aun]-OH; thioether N-14), the negative logarithm of the IC50 (pIC50) is 6.65.
With `Cc1cccc(C[C@@H]2NC(=O)[C@H](CC(=O)O)NC(=O)[C@H](Cc3ccc(OCC(=O)O)cc3)NC(=O)[C@H](CCc3ccccc3)NC(=O)CSC[C@@H](C(=O)N[C@@H](CCN)C(=O)NCCCCCCCCCCC(=O)O)NC(=O)[C@H](CO)NC(=O)[C@H](C(C)C)NC(=O)[C@H](CC3CCCCC3)NC(=O)[C@H](CCN)NC(=O)[C@@H](CC(C)C)NC(=O)[C@H](C)N(C)C(=O)[C@H](Cc3ccc(O)cc3)NC(=O)[C@H](Cc3ccc(-c4ccccc4)cc3)NC(=O)[C@H](Cc3ccc(OCC(=O)O)cc3)NC2=O)c1` [Example 1276] ({CH2CO}-[hPhe]Y(Carboxymethyl)D[Phe(3-Me)]Y(Carboxymethyl)[Bip]Y[NMeA][dL][Dab][Cha]VSC[Dab][Aun]-OH; thioether N-14) the figure was 6.85.
For the compound `Cc1cccc(C[C@@H]2NC(=O)[C@H](CC(=O)O)NC(=O)[C@H](Cc3ccc(OCC(=O)O)cc3)NC(=O)[C@H](Cc3ccc(C(N)=O)cc3)NC(=O)CSC[C@@H](C(=O)N[C@@H](CCN)C(=O)NCCCCCCCCCCC(=O)O)NC(=O)[C@H](CO)NC(=O)[C@H](C(C)C)NC(=O)[C@H](CC3CCCCC3)NC(=O)[C@H](CCN)NC(=O)[C@@H](CC(C)C)NC(=O)[C@H](C)N(C)C(=O)[C@H](Cc3ccc(O)cc3)NC(=O)[C@H](Cc3ccc(-c4ccccc4)cc3)NC(=O)[C@H](Cc3ccc(OCC(=O)O)cc3)NC2=O)c1` [Example 1277] ({CH2CO}-[Phe(4-CONH2)]Y(Carboxymethyl)D[Phe(3-Me)]Y(Carboxymethyl)[Bip]Y[NMeA][dL][Dab][Cha]VSC[Dab][Aun]-OH; thioether N-14), the pIC50 is 7.61.
